From US12503444B2, “Compound containing benzene ring and application thereof” (WUHAN LL SCIENCE AND TECHNOLOGY DEVELOPMENT CO., LTD., priority 2019, dated 2025)
pIC50: −log10 of the molar value. Where two headings read alike, the source gives them in different places.

Target: T1, hP2X4 (human purinergic P2X receptor subtype 4) (Homo sapiens, UniProt Q99571)
T1 sequence (Q99571 1-404 isoform Q99571-2): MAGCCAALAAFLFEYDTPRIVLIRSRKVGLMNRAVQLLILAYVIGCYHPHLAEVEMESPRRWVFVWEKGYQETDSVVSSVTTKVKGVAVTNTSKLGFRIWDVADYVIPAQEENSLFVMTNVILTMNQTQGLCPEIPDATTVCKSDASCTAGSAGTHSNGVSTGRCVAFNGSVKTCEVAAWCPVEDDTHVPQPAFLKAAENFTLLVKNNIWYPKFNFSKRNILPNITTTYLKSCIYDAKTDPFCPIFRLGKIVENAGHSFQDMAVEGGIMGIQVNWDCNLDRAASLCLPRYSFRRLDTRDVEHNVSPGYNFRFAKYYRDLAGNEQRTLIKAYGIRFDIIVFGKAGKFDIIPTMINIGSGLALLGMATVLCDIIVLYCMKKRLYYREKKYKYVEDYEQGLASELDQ
Test: FLIPR assay of intracellular calcium increase induced by activation of hP2X4 expressed in HEK293 cells (agonist BZ-ATP 2.5 μM)
Assay type: cell-based
Conditions: HEK293 cells stably expressing hP2X4, FLIPR, read-out: P2X4 IC50
Description: The antagonist property of the compounds disclosed herein was determined using the FLIPR (fluorescence imaging plate reader) method, wherein the compounds are inhibitors for the intracellular calcium increase induced by activation of hP2X4 (human purinergic P2X receptor subtype 4, accession No. NM_001256796.2) expressed in HEK293 cells (human renal epithelial cell line, ATCC).
HEK293 cells stably expressing hP2X4 were cultured in DMEM high glucose medium containing 10% FBS (fetal bovine serum, Biosera, FB-1058/500), 1% penicillin-streptomycin (Gibco, 15140-122) and 1 mg/mL G418 (CABIOCHE, 345810) in a cell incubator (37° C., […]). Cells at 400,000 cells/mL were seeded into a 384-well plate (10,000 cells/well) 18-24 h prior to the FLIPR experiment and then incubated overnight in a cell incubator. On the day of the experiment, the medium was discarded and the cells were washed in an FLIPR buffer (0.3 mL of probenecid (Thermo, P36400), 0.6 mL of 1 M HEPES (Invitrogen, 15630080) and 29.1 mL of HBSS (Invitrogen, 14065056) per 30 mL of the buffer). Each well was added with 20 μL of 0.5× Calcium 6 fluorescent dye (Molecular Devices, R8190) and then the cells were subjected to dye-loading incubation at 37° C. for 1.5 h. Each well was added with 10 μL of respective test compound (dissolved in DMSO at a concentration of 10 mM and serially diluted with buffer) or vehicle and the mixture was equilibrated for 30 min at room temperature. The cell plate was then placed in the FLIPR for baseline fluorescence measurements (excitation at 485 nm and emission at 525-535 nm). An agonist (BZ-ATP (Sigma, B6396) at a final concentration of 2.5 μM) or a vehicle (ultrapure water) was then added at 10 μL/well, fluorescence values were measured for 2 min at 1-second intervals, and finally the output fluorescence counts were analyzed.

Compound	pIC50 (class symbols)	pIC50 (numeric values)
NS(=O)(=O)c1cc(NC(=O)Cc2ccccc2Cl)cc2nn(CCF)cc12 [Compound 11, 2-(2-chlorophenyl)-N-(2-(2-fluoroethyl)-4-sulfamoyl-2H-indazol-6-yl)acetamide]	≥ 8.00	
COc1cnccc1Cn1cc2c(S(N)(=O)=O)cc(NC(=O)Cc3ccccc3Cl)cc2n1 [Compound 39, 2-(2-chlorophenyl)-N-(2-((3-methoxypyridin-4-yl)methyl)-4-sulfamoyl-2H-indazol-6-yl)acetamide]	7.30 to 8.00	
CC(c1ccc(F)cc1)n1ncc2c(S(N)(=O)=O)cc(NC(=O)Cc3ccccc3Cl)cc21 (stereo not shown) [Compound 40-B, 2-(2-chlorophenyl)-N-(1-(1-(4-fluorophenyl)ethyl)-4-sulfamoyl-1H-indazol-6-yl)acetamide]	≥ 8.00	
NS(=O)(=O)c1cc(NC(=O)Cc2ccccc2Cl)cc2nc(C3CC3)[nH]c12 [Compound 52, 2-(2-chlorophenyl)-N-(2-cyclopropyl-7-sulfamoyl-1H-benzo[d]imidazol-5-yl)acetamide]	5.30 to 6.70	
NS(=O)(=O)c1cc(NC(=O)Cc2ccccc2Cl)cc2cnn(CCO)c12 [Compound 48-B, 2-(2-chlorophenyl)-N-(1-(2-hydroxyethyl)-7-sulfamoyl-1H-indazol-5-yl)acetamide]	5.30 to 6.70	
NS(=O)(=O)c1cc(NC(=O)Cc2ccccc2Cl)cc2nn(CCOC3CC3)cc12 [Compound 28, 2-(2-chlorophenyl)-N-(2-(2-cyclopropyloxyethyl)-4-sulfamoyl-2H-indazol-6-yl)acetamide]	7.30 to 8.00	
N-(4-(N,N-bis(4-methoxybenzyl)sulfamoyl)-1-(4-fluorobenzyl)-1H-indazol-6-yl)-2-(2-chlorophenyl)acetamide [Compound 88A]	≥ 8.00	
NS(=O)(=O)c1cc(NC(=O)Cc2ccccc2Cl)cc2nn(C(=O)c3ccc(F)cc3)cc12 [Compound 42-A, 2-(2-chlorophenyl)-N-(2-(4-fluorobenzoyl)-4-sulfamoyl-2H-indazol-6-yl)acetamide]	7.30 to 8.00	
CCn1cc2c(S(N)(=O)=O)cc(NC(=O)Cc3ccccc3Cl)cc2n1 [Compound 4-A, (4-sulfonamide-6-N-(2-chlorophenylacetyl)-2-ethyl)-indazole]	≥ 8.00	
NS(=O)(=O)c1cc(NC(=O)Cc2ccccc2Cl)cc2c1cnn2CC1CC1 [Compound 15-B, 2-(2-chlorophenyl)-N-(1-(cyclopropylmethyl)-4-sulfamoyl-1H-indazol-6-yl)acetamide]	7.30 to 8.00	
NS(=O)(=O)c1cc(NC(=O)Cc2ccccc2Cl)cc2c1cnn2C(=O)c1ccc(F)cc1 [Compound 42-B, 2-(2-chlorophenyl)-N-(1-(4-fluorobenzoyl)-4-sulfamoyl-1H-indazol-6-yl)acetamide]	5.30 to 6.70	
CS(=O)(=O)CCn1cc2c(S(N)(=O)=O)cc(NC(=O)Cc3ccccc3Cl)cc2n1 [Compound 30, 2-(2-chlorophenyl)-N-(2-(2-(methylsulfonyl)ethyl)-4-sulfamoyl-2H-indazol-6-yl)acetamide]	7.30 to 8.00	
CC(c1ccc(F)cc1)n1cc2c(S(N)(=O)=O)cc(NC(=O)Cc3ccccc3Cl)cc2n1 (stereo not shown) [Compound 40-A, 2-(2-chlorophenyl)-N-(2-(1-(4-fluorophenyl)ethyl)-4-sulfamoyl-2H-indazol-6-yl)acetamide]	7.30 to 8.00	
CC(C)OCCn1ncc2c(S(N)(=O)=O)cc(NC(=O)Cc3ccccc3Cl)cc21 [Compound 26-B, 2-(2-chlorophenyl)-N-(1-(2-isopropoxyethyl)-4-sulfamoyl-1H-indazol-6-yl)acetamide]	5.30 to 6.70	
NS(=O)(=O)c1cc(NC(=O)Cc2ccccc2Cl)cc2nn(C3COC3)cc12 [Compound 59, 2-(2-chlorophenyl)-N-(2-(oxetan-3-yl)-4-sulfamoyl-2H-indazol-6-yl)acetamide]	5.30 to 6.70	
NS(=O)(=O)c1cc(NC(=O)Cc2ccccc2Cl)cc2[nH]ccc12 [Compound 56, 2-(2-chlorophenyl)-N-(4-sulfamoyl-1H-indol-6-yl)acetamide]	7.30 to 8.00	
CC1(n2cc3c(S(N)(=O)=O)cc(NC(=O)Cc4ccccc4Cl)cc3n2)CC1 [Compound 22, 2-(2-chlorophenyl)-N-(2-(1-methylcyclopropyl)-4-sulfamoyl-2H-indazol-6-yl)acetamide]	7.30 to 8.00	
2-(2-chlorophenyl)-N-(1-(2-hydroxyethyl)-4-sulfamoyl-2H-indazol-6-yl)acetamide [Compound 27-B]	6.70 to 7.30	
CCC1(n2cc3c(S(N)(=O)=O)cc(NC(=O)Cc4ccccc4Cl)cc3n2)CC1 [Compound 18, 2-(2-chlorophenyl)-N-(2-(1-ethylcyclopropyl)-4-sulfamoyl-2H-indazol-6-yl)acetamide]	7.30 to 8.00	
CN(C)c1cccc(Cn2ncc3c(S(N)(=O)=O)cc(NC(=O)Cc4ccccc4Cl)cc32)c1 [Compound 46, 2-(2-chlorophenyl)-N-(1-(3-(dimethylamino)benzyl)-4-sulfamoyl-1H-indazol-6-yl)acetamide]	7.30 to 8.00	
CC(C)NCCn1cc2c(S(N)(=O)=O)cc(NC(=O)Cc3ccccc3Cl)cc2n1 [Compound 29, 2-(2-chlorophenyl)-N-(2-(2-(isopropylamino)ethyl)-4-sulfamoyl-2H-indazol-6-yl)acetamide]	7.30 to 8.00	
CN(C)c1cccc(Cn2cc3c(S(N)(=O)=O)cc(NC(=O)Cc4ccccc4Cl)cc3n2)c1 [Compound 38, 2-(2-chlorophenyl)-N-(2-(3-(dimethylamino)benzyl)-4-sulfamoyl-2H-indazol-6-yl)acetamide]	7.30 to 8.00	
CC(C)n1ncc2c(S(N)(=O)=O)cc(NC(=O)Cc3ccccc3Cl)cc21 [Compound 6-B, 2-(2-chlorophenyl)-N-(1-isopropyl-4-sulfamoyl-1H-indazol-6-yl)acetamide]	7.30 to 8.00	
N#Cc1nc2c(S(N)(=O)=O)cc(NC(=O)Cc3ccccc3Cl)cc2[nH]1 [Compound 51, 6-(2-chlorophenylacetamide)-2-nitrile-4-sulfonamide benzimidazole]		6.03

Next, values leading:

pIC50 (class symbols)	pIC50 (numeric values)	Compound
5.30 to 6.70		NS(=O)(=O)c1cc(NC(=O)CC2CCCCC2O)cc2nn(C(F)F)cc12 (stereo not shown) [Compound 136, N-(2-(difluoromethyl)-4-sulfamoyl-2H-indazol-6-yl)-2-(2-hydroxycyclohexyl)acetamide]
5.30 to 6.70		COc1ccccc1CC(=O)Nc1cc(S(N)(=O)=O)c2cn(C(F)F)nc2c1 [Compound 115, N-(2-(difluoromethyl)-4-sulfamoyl-2H-indazol-6-yl)-2-(2-methoxyphenyl)acetamide]
5.30 to 6.70		NS(=O)(=O)c1cc(NC(=O)Cc2ccccc2Cl)cc2c1cnn2CCN1CCOCC1 [Compound 118A, 2-(2-chlorophenyl)-N-(1-(2-morpholinoethyl)-4-sulfamoyl-1H-indazol-6-yl)acetamide]
≥ 8.00		COc1ccc(Cn2cc3c(S(N)(=O)=O)cc(NC(=O)Cc4ccccc4Cl)cc3n2)c(F)c1 [Compound 85]
≥ 8.00		COc1ccc(Cn2cc3c(S(N)(=O)=O)cc(NC(=O)Cc4ccccc4Cl)cc3n2)cn1 [Compound 94]
≥ 8.00		COc1ccc(Cn2ncc3c(S(N)(=O)=O)cc(NC(=O)Cc4ccccc4Cl)cc32)c(F)c1 [Compound 83, 2-(2-chlorophenyl)-N-(1-(2-fluoro-4-methoxybenzyl)-4-sulfamoyl-1H-indazol-6-yl)acetamide]
≥ 8.00		Nc1ccc(Cn2cc3c(S(N)(=O)=O)cc(NC(=O)Cc4ccccc4Cl)cc3n2)cc1 [Compound 95, N-(2-(4-aminobenzyl)-4-sulfamoyl-2H-indazol-6-yl)-2-(2-chlorophenyl)acetamide]
6.70 to 7.30		NS(=O)(=O)c1cc(NC(=O)Cc2ccccc2Cl)cc2nn(CC3CCC(O)CC3)cc12 (stereo not shown) [Compound 108]
5.30 to 6.70		NS(=O)(=O)c1cc(NC(=O)Cc2ccccc2Cl)cc2c1c(Cl)nn2-c1ccc(F)cc1 [Compound 75, N-(3-chloro-1-(4-fluorophenyl)-4-sulfamoyl-1H-indazol-6-yl)-2-(2-chlorophenyl)acetamide]
5.30 to 6.70		COc1ccccc1CC(=O)Nc1cc(S(C)(=N)=O)c2cn(Cc3ccc(F)cc3)nc2c1 (stereo not shown) [Compound 140, N-(2-(4-fluorophenylmethyl)-4-(S-methylsulphonimidoyl)-2H-indazol-6-y)-2-(2-methoxyphenyl)acetamide]
